In patent publication US8815935B2, “Inhibitors of protein prenyltransferases” (The Regents of the University of California, priority 2008, dated 2014):
Entries after “also recorded” stand apart in the source; their conditions may differ.

Tests used:
MDA-MB-231 [1] = experiment: MDA-MB-231 cell growth inhibition; type: cell-based, human; settings: Homo sapiens, MDA-MB-231, 72 h; 3 days, CCK-8, vs DMSO; read-out: IC50, MDA-MB-231 (Breast)
Experimental: (§1) In FIG. 9-24 in vitro IC50 values for the GGTase I activity are reported. In Tables 7-15 in cell GI50 values for the growth inhibition of a variety of cancer cell lines (e.g., Jurkat, K562, MDA-MB-231, BT474, MCF7, MiaPaCa2, Aspc-1, Panc-1, Capan-2, CFpac-1, and MCF10a) are reported.
(§2) Cell viability was determined by Cell Counting Kit-8 (CCK-8, Dojindo, Kumamoto, Japan) as described previously (31). Cell viability was calculated relative to the DMSO control. Cell cycle profile was analyzed by flow cytometry as described previously (32).

MCF7 = MCF7 cell growth inhibition; type: cell-based, human
Experimental: as §1, §2

MiaPaCa2 = MiaPaCa2 cell growth inhibition; type: cell-based, human; settings: Homo sapiens, MIA PaCa-2, 72 h; 3 days, CCK-8, vs DMSO; read-out: IC50, MiaPaCa2 (Pancreas)
Experimental: as §1, §2

Capan-2 = Capan-2 cell growth inhibition; type: cell-based, human; settings: Homo sapiens, Capan-2, 72 h; 3 days, CCK-8, vs DMSO; read-out: IC50, Capan-2 (Pancreas)
Experimental: as §1, §2

SE-Mk2 = SE-Mk2 cell growth inhibition; type: cell-based; settings: Homo sapiens, SEMK2, 144 h; 6 days, CCK-8, vs DMSO; read-out: IC50, SE-Mk2 (Blood)
Experimental: as §2

HPAC = HPAC cell growth inhibition; type: cell-based; settings: Homo sapiens, 72 h, 3 days, CCK-8, vs DMSO, read-out: IC50, HPAC (Pancreas)
Experimental: as §2

MDA-MB-231 [2] = experiment: Cell cycle distribution by flow cytometry, MDA-MB-231; type: cell-based, human; settings: 10 μM, 48 hours
Experimental: as §2

MCF-7 cells = experiment: Cell cycle profile by flow cytometry, MCF-7; type: cell-based, human; settings: 48 hours, FIG. 37B
Experimental: MCF-7 cells were treated with P61-A6, P61-B6 or DMSO for 72 hours. Cell viability relative to the DMSO control (100% value) is plotted. (B) MCF-7 cells were treated with indicated concentrations (μM) of P61-A6, P61-B6 or DMSO for 48 hours. Cell cycle profiles were monitored by flow cytometry. Percentages of cells in each phase of the cell cycle are indicated by different shades. (C) NIH3T3 cells were transfected with p21^CIP1/WAF1-luciferase or empty vector. Cells were treated with P61-A6 or P61-B6 compound at indicated concentrations or with DMSO for 48 hours and luciferase assay was performed. Data represent the mean+/−S.D. of two measurements from two independent experiments. *, P<0.05; **, P<0.005 compared with the value for DMSO.
as §2

[3] = tested on: Rap1 geranylgeranylation in NIH3T3 cells; experiment: Unprenylated Rap1 immunoblot in NIH3T3 cells; type: cell-based; settings: 48 hours
Experimental: The inhibition of GGTase-I catalyzed protein geranylgeranylation was assessed by examining the accumulation of unprenylated Rap1. To measure the level of unprenylated Rap1, cells were cultured in DMEM plus 10% (v/v) FBS overnight, and then DMSO or appropriate inhibitors were added. Incubation was continued for 48 hours. The cells were harvested and lysed in lysis buffer (20 mM Tris-HCl, pH 7.5, 150 mM NaCl, 1 mM EDTA, 1% NP-40 and 1× Protease Inhibitor Cocktail). Whole cell lysates of NIH3T3 cells were electrophoresed on a 12% SDS-PAGE, transferred to nitrocellulose membranes and immunoblotted with the antibody against unprenylated form of Rap1 (Santa Cruz Biotechnology catalog number sc-1482, goat), total-Rap1 (Santa Cruz: sc-65) or actin (Sigma: A4700). Actin was used as a loading control.

[4] = tested on: Rab5b geranylgeranylation in NIH3T3 cells; experiment: Rab5b immunoblot and subcellular fractionation in NIH3T3 cells; type: cell-based; settings: 48 hours
Experimental: The inhibition of Rab geranylgeranylation in cells (FIG. 43) was examined according to (29). Briefly, whole cell lysates were subjected to 15% SDS-PAGE containing 4M urea followed by immunoblotting with the antibody against Rab5b (Santa Cruz: sc-598) or actin. Subcellular fractionations (FIG. 44) were performed as described by Gomes et al. (30). Briefly, cells were treated with P49-F6 for 48 hours. After osmotic lysis, cell debris were removed by centrifugation at 500×g for 10 min, and the supernatant was subjected to ultracentrifugation at 100,000×g for 60 min. The supernatant of ultracentrifugation was collected as a soluble fraction. The pellet was collected as a membrane fraction. These fractions were subjected to electrophoresis on 10% SDS-PAGE gels followed by immunoblotting with the antibody against Rab5b. RhoGDI (Santa Cruz: sc-360) and Na^+/K^+ ATPase (Sigma: A276) were used as markers for soluble and membrane fractions, respectively.

PANC-1 xenograft tumor = PANC-1 xenograft tumor growth in SCID mice; type: in vivo; settings: 1.16 mg/kg i.p., six times per week
Experimental: Xenograft tumor experiments have shown that GGTI's can inhibit PANC-1 tumor growth in mice. Seven SCID mice (six weeks old) received a subcutaneous implantation of 5 million PANC-1 cells. The mice were supplied with food and water for 14 days before treatment was started. The treatment group received 160 uM GGTI (p61A6) in 0.25 ml 0.9% NaCl while the control group received 0.25 ml 0.9% NaCl. Each dosage was injected 3 times per week. These dosage were designed to administer p61A6 at approximately 1.16 mg/kg of body weight. Also, since the mouse has about 2 ml blood, the final concentration of p61A6 in vivo was approximately 20 uM. The final DMSO concentration in the control group was approximately 0.8%.
Additional xenograft tumor experiments have shown that GGTI's can inhibit PANC-1 tumor growth in mice and reduce the size of the tumor. Six SCID mice (six weeks old) received a subcutaneous implantation of 3 million PANC-1 cells. The mice were supplied with food and water for 14 days before treatment began. […] Every two weeks each mouse's body weight and tumor volume was measured.

IC50 (MDA-MB-231 [1]): 8.7 µM | IC50 (MCF7; Homo sapiens, MCF7, 144 h, 6 days, CCK-8, vs DMSO, read-out: IC50, MCF-7 (Breast)): 4.5 µM | IC50 (MiaPaCa2): 4.7 µM
SMILES: Cc1ccccc1S(=O)(=O)N1C(c2ccc(Cl)cc2)C(C(=O)NC(Cc2ccccc2)C(N)=O)=CC1C(C)(C)C (centres unmarked) [P61-A6]
inhibition of proliferation of MCF-7 (MCF7; 72 hours, FIG. 37A): dose-dependent inhibition of proliferation | IC50 (Capan-2): 11.5 µM | IC50 (SE-Mk2): 6.4 µM | IC50 (HPAC): 3.9 µM | Percent G2/M, MDA-MB-231 (MDA-MB-231 [2]; DMSO 7.74): 5.15% | Percent G0/G1, MDA-MB-231 (MDA-MB-231 [2]; DMSO 73.78): 85.16% | cell cycle effect in MCF-7 (MCF-7 cells): dose-dependent enrichment of G1 phase cells | appearance of the unprenylated (unprocessed) Rap1 band [3]: in a dose dependent manner; also recorded: inhibits Rap1 geranylgeranylation | appearance of the unprenylated Rap1 band at 2.5 μM ([3]; 2.5 μM): observed | inhibition of Rab5b geranylgeranylation (slow migrating unmodified Rab5b band) [4]: did not inhibit geranylgeranylation of Rab5b | PANC-1 xenograft tumor growth (PANC-1 xenograft tumor): almost complete inhibition
